These results are taken from patent publication US4711898A, “4-quinolone derivatives having anti-inflammatory, anti-allergic, antitussive, expectorant and antithrombotic activity” (Nippon Shinyaku Co., Ltd., priority 1982, dated 1987).

The subject of the first test is passive cutaneous anaphylaxis (DNP-As homocytotropic antiserum). In words: passive cutaneous anaphylatic assay (PCA) in rats. It is filed as in vivo, Wistar strain rats. The following applies: 10 mg/kg orally, one hour before antigen, listed as 2-Methyl, Na salt. How it is done:
(§1) The compounds of the present invention have been evaluated for their anti-allergenic action by passive cutaneous anaphylatic assay (PCA) in rats and by measuring the anti-SRS-A action using ileus of guinea pigs.
(i) Antiserum abundant in homocytotropic antibody is prepared by the same method as Tada and Okumura did (cf. Journal of Immunology, vol. 106, page 1002, 1971). Thus, 1 mg (calculated as an amount of protein) of DNP-As (2,4-dinitrophenylcoupled ascaris extract) prepared by methods of Strejan and Campbell (Journal of Immunology, vol. 98, p. 893, 1967) and of Eisen (Journal of Amer. Chem. Soc., vol. 75, p 4593, 1953) and 1×10^10pertussis vaccine are administered to each paw of Wistar strain rats (180 to 200 grams body weights) by dividing the dose by four. Five days later, 0.5 mg of DNP-As is administered into muscle of back. Eight days later from the initial immunization, blood is taken from discending aorta under anesthetizing with ether, the resulting serum is stored at -80° and is melted before use.
(ii) Effect of tested compounds is investigated as follows:
Anti-serum obtained by th method (i) is diluted with physiological saline solution double by double successively and 0.05 ml of each diluted solution is administered into the back of Wistar strain rats (140 to 160 grams body weight) intradermally. After 72 hours, a solution of 2 mg (calculated as protein) of DNP-As and 2.5 mg of Evans Blue dissolved in 1 ml of physiological saline solution is administered intraveously at a dose of 5 ml/kg. After 30 minutes from the antigen solution administration, the animals are killed and the diameters of blue spots which appeared at the place where antiserum was administered were measured. The PCA test is conducted by the same method as already described using a diluted solutions of antiserum which always show 10 mm or more of spot diameters and the effect of the test compounds is judged. Thus antiserum diluted solutions are administered into two places in the back. Test compounds are administered orally at the dose of 10 mg/kg one hour before administration of the antigen solution. From the skin of reacted parts of killed animals, leaked or emitted dyestuff is extracted and the amount of the dyestuff is measured. The inhibition ratio is calculated by the following expression: [formula] in which A' is an amount of dyestuff in the group treated with the test compounds and A is that in the control group.
On to `Cc1ccccc1-c1cc(=O)c2cc(C(=O)O)ccc2[nH]1` [Example 43], for which the “PCA Inhibition Ratio %” value is reported as 24.8%.

Still in this test, the particulars now being: 10 mg/kg orally, one hour before antigen, listed as H, Na salt.
In the case of `O=C(O)c1cccc2c(=O)cc(-c3ccccc3)[nH]c12` [Example 82], the “PCA Inhibition Ratio %” value is on record as 10.0%.

The same test, now with this note: Rattus norvegicus, po, 1 h, 10 mg/kg orally, one hour before antigen, read-out: PCA Inhibition Ratio %.
`COC(=O)c1ccc2c(c1)c(=O)cc(-c1ccccc1)n2C` [Example 7, Methyl 1-methyl-2-phenyl-4-quinolone-6-carboxylate]: the inhibition in vivo at 10 mg/kg was 21.3%.
Turning to `COC(=O)c1ccc2[nH]c(-c3cccnc3)cc(=O)c2c1` [Example 72], the inhibition in vivo at 10 mg/kg was 17.8%.
On to `O=C(O)c1ccc2[nH]c(-c3ccccc3)cc(=O)c2c1` [Example 3, Sodium 2-phenyl-4-quinolone-6-carboxylate], for which the inhibition in vivo at 10 mg/kg was 27.9%.
As to `CCOC(=O)c1cccc2c(=O)cc(-c3ccc(C)c(C)c3)[nH]c12` [Example 105], the inhibition in vivo at 10 mg/kg amounted to 17.3%.
Same read-out and setting: then `O=C(O)c1ccc2[nH]c(-c3cccnc3)cc(=O)c2c1` [Example 73], with 20.4%; and `COC(=O)c1ccc2[nH]c(-c3ccccc3F)cc(=O)c2c1` [Example 26], with 20.6%; and `COc1ccc(-c2cc(=O)c3cc(C(=O)O)ccc3[nH]2)cc1OC` [Example 67], with 17.4%.
For `CCn1c(-c2ccccc2)cc(=O)c2cc(C(=O)O)ccc21` [Example 14], the inhibition in vivo at 10 mg/kg was determined as 16.4%.
The same measure, in the same setting: as for `COC(=O)c1cccc2c(=O)cc(-c3ccc(Cl)cc3Cl)[nH]c12` [Example 88], the figure is 17.5%.
On the same count and under the same terms, then `O=C(O)c1cccc2c(=O)cc(-c3ccc(Cl)c(Cl)c3)[nH]c12` [Example 91], with 22.7%.
The same measure, in the same setting: then `CCCOC(=O)c1cccc2c(=O)cc(-c3ccccc3Cl)[nH]c12` [Example 111], with 2.4%; and `O=C(OCCOCCO)c1cccc2c(=O)cc(-c3ccccc3Cl)[nH]c12` [Example 128], with 10.7%.
For `O=C(OCCc1ccccc1)c1ccc2c(c1)C(=O)CC(c1ccccc1)=N2` [Example 6, Phenethyl 2-phenyl-4-quinolone-6-carboxylate], the inhibition in vivo at 10 mg/kg was determined as 24.3%.
Same read-out and setting: as for `O=C(OCCCCCCO)c1cccc2c(=O)cc(-c3ccccc3Cl)[nH]c12` [Example 117], the figure is 50%; as for `O=C(O)c1ccc2[nH]c(-c3ccncc3)cc(=O)c2c1` [Example 71], 25.6%; as for `CCOc1ccccc1-c1cc(=O)c2cc(C(=O)OC)ccc2[nH]1` [Example 58], 23.1%.
On the same count and under the same terms, then `O=C(O)c1ccc2[nH]c(-c3cccc(Cl)c3)cc(=O)c2c1` [Example 30], with 43%; and `O=C(O)c1ccc2[nH]c(-c3ccccn3)cc(=O)c2c1` [Example 75], with 20.4%; and `O=C(O)c1cccc2c(=O)cc(-c3ccc(Cl)cc3Cl)[nH]c12` [Example 90], with 23.4%.
The same measure, in the same setting: as for `O=C(OCCOc1ccccc1)c1cccc2c(=O)cc(-c3ccccc3Cl)[nH]c12` [Example 119], the figure is 47%.

The subject of another test is SRS-A (slow reacting substance of anaphylaxis) contraction of ileum. In words: Anti-SRS-A action using ileus of guinea pigs. It is filed as cell-based, Hartley strain male guinea pigs. As to conditions: Cavia porcellus, 5 min, 1/1000 mM; guinea pig ileum; SRS-A 20 units; compound five minutes before; read-out: 1/1000 mM SRS-A Inhibition Ratio %. How it is done:
as §1
Anti-SRS-A action (An anti-acton against slow reacting substance of anaphylaxis).
Hartley strain male guinea pigs (300 to 350 grams body weight) are killed and 1.0 to 1.5 cm of ileum is immeidiately excised from ileocecal parts and is suspended in 10 ml of Tyrode solution (95% 02 -5% CO2 saturation) containing 10^-7 g/ml of atropine and 10^-6 g/ml of pyrilamine. SRS-A (20 units) (the amount of SRS-A showing the same contradiction as 5 ng of histamine is defined as 1 unit) prepared by using sensitized guinea pig lung is given to cause contraction there. Then antagonistic action of test compounds treated five minutes ago against the contraction is measured and recorded via isotonic transducer. [formula] in which A' is a height of contraction of SRS-A+test compound and A is that of SRS-A.
As to `COC(=O)c1ccc2c(c1)c(=O)cc(-c1ccccc1)n2C` [Example 7, Methyl 1-methyl-2-phenyl-4-quinolone-6-carboxylate], the inhibition at 1 µM worked out at 100%.
Same read-out and setting: as for `COC(=O)c1ccc2[nH]c(-c3cccnc3)cc(=O)c2c1` [Example 72], the figure is 22%; as for `O=C(O)c1ccc2[nH]c(-c3ccccc3)cc(=O)c2c1` [Example 3, Sodium 2-phenyl-4-quinolone-6-carboxylate], 85%.
The same measure, in the same setting: as for `CCOC(=O)c1cccc2c(=O)cc(-c3ccc(C)c(C)c3)[nH]c12` [Example 105], the figure is 10.4%; as for `O=C(O)c1ccc2[nH]c(-c3cccnc3)cc(=O)c2c1` [Example 73], 23.8%; as for `COC(=O)c1ccc2[nH]c(-c3ccccc3F)cc(=O)c2c1` [Example 26], 38.5%.
Regarding `COc1ccc(-c2cc(=O)c3cc(C(=O)O)ccc3[nH]2)cc1OC` [Example 67], the inhibition at 1 µM is 25%.
`CCn1c(-c2ccccc2)cc(=O)c2cc(C(=O)O)ccc21` [Example 14]: the inhibition at 1 µM came out at 28.9%.
On the same count and under the same terms, then `COC(=O)c1cccc2c(=O)cc(-c3ccc(Cl)cc3Cl)[nH]c12` [Example 88], with 45.5%; and `O=C(O)c1cccc2c(=O)cc(-c3ccc(Cl)c(Cl)c3)[nH]c12` [Example 91], with 24.2%.
As for `CCCOC(=O)c1cccc2c(=O)cc(-c3ccccc3Cl)[nH]c12` [Example 111], the inhibition at 1 µM stood at 7.8%.
Take `O=C(OCCOCCO)c1cccc2c(=O)cc(-c3ccccc3Cl)[nH]c12` [Example 128]: the inhibition at 1 µM was found to be 25%.
For `O=C(OCCc1ccccc1)c1ccc2c(c1)C(=O)CC(c1ccccc1)=N2` [Example 6, Phenethyl 2-phenyl-4-quinolone-6-carboxylate], the inhibition at 1 µM was determined as 22.8%.
Take `O=C(OCCCCCCO)c1cccc2c(=O)cc(-c3ccccc3Cl)[nH]c12` [Example 117]: the inhibition at 1 µM was 8.7%.
Still for that read-out and setting: then `O=C(O)c1ccc2[nH]c(-c3ccncc3)cc(=O)c2c1` [Example 71], with 25%.
In the case of `CCOc1ccccc1-c1cc(=O)c2cc(C(=O)OC)ccc2[nH]1` [Example 58], the inhibition at 1 µM came to 63%.
Same read-out and setting: as for `O=C(O)c1ccc2[nH]c(-c3cccc(Cl)c3)cc(=O)c2c1` [Example 30], the figure is 24.5%; as for `O=C(O)c1ccc2[nH]c(-c3ccccn3)cc(=O)c2c1` [Example 75], 28.9%; as for `O=C(O)c1cccc2c(=O)cc(-c3ccc(Cl)cc3Cl)[nH]c12` [Example 90], 53.6%.
On the same count and under the same terms, as for `O=C(OCCOc1ccccc1)c1cccc2c(=O)cc(-c3ccccc3Cl)[nH]c12` [Example 119], the figure is 73.4%.

Still in this test, the particulars now being: guinea pig ileum, SRS-A 20 units, compound five minutes before, 5 min, listed as 2-Methyl, Na salt, 1 µM.
Regarding `Cc1ccccc1-c1cc(=O)c2cc(C(=O)O)ccc2[nH]1` [Example 43], the “1/1000 mM SRS-A Inhibition Ratio %” value stood at 17.3%.

The same test, now with this note: guinea pig ileum, SRS-A 20 units, compound five minutes before, 5 min, listed as H, Na salt, 1 µM.
On to `O=C(O)c1cccc2c(=O)cc(-c3ccccc3)[nH]c12` [Example 82], for which the “1/1000 mM SRS-A Inhibition Ratio %” value is 27.3%.
